Laboratory results: ChEMBL document CHEMBL1201862, “PubChem BioAssay data set” (2004)
Counter-ions that a name gives are not always drawn.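 The compound was tested at five concentrations on cells cultured in 96-well plates, with a 48-hour exposure period. The concentration for 50% growth inhibition is given as GI50.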 The source made the active and inactive calls. No stated cut-off is given here; in the data, active = GI50 up to about 1.1 µM and inactive = higher.

Legend:
Experiment in all cases: DTP human tumour cell line panel, 48 h
[1] = tested on: BT-549
[2] = tested on: KM-20L2
[3] = tested on: XF498
[4] = tested on: DMS-114
[5] = tested on: HOP-18
[6] = tested on: DMS-273
[7] = tested on: LXFL 529
[8] = tested on: DLD-1

O=C(c1ccccc1)c1ccc2nc3n(c2c1)C(c1c(F)cccc1F)SC3 (centres undefined)
GI50 [1]: 17.3 µM (inactive)

CC(C)=CCc1c(O)c(CC=C(C)C)c2oc3c(c(=O)c2c1O)C(C=C(C)C)Oc1cc(O)ccc1-3 (centres undefined)
GI50 [1]: 12.2 µM (inactive)

CN1CCN(c2ncc3c(n2)sc2c(=O)n(-c4ccccc4)cnc23)CC1
GI50 [1]: > 100 µM (inactive)

O=C(c1cc(O)ccc1O)c1ccccc1C(Cl)(Cl)Cl
GI50 [2]: > 100 µM (inactive) | GI50 [3]: 34.9 µM (inactive) | GI50 [4]: 32 µM (inactive) | GI50 [5]: > 100 µM (inactive) | GI50 [6]: > 100 µM (inactive) | GI50 [7]: 61.4 µM (inactive)

CN1[C@@H]2CCCC[C@H]2N(C)P1(=O)C(O)/C=C/c1ccccc1 (some centres undefined)
GI50 [1]: > 100 µM (inactive)

CC(=O)/N=C1/N(/C=C2\C(=O)Oc3ccccc3C2=O)C(=O)/C(=C/c2ccc(Cl)cc2Cl)N1C
GI50 [1]: 11.5 µM (inactive)

Oc1ccc(/N=N/c2ccc(Cl)cc2)cc1
GI50 [1]: 15.1 µM (inactive)

COc1ccc2c3ccc4c(c3n(C)c2c1)C(=O)c1ccccc1C4=O
GI50 [2]: 39.8 µM (inactive) | GI50 [4]: > 100 µM (inactive) | GI50 [5]: > 100 µM (inactive) | GI50 [6]: > 100 µM (inactive) | GI50 [7]: 78 µM (inactive) | GI50 [8]: > 100 µM (inactive)

O=C(O)CCSC(=O)Nc1ccccc1
GI50 [2]: > 100 µM (inactive) | GI50 [6]: > 100 µM (inactive) | GI50 [7]: 61.9 µM (inactive) | GI50 [8]: > 100 µM (inactive)

COc1cc(-c2oc3c(OC)c(O)c(OC)c(O)c3c(=O)c2OC)cc(OC)c1OC
GI50 [1]: 71.8 µM (inactive)

CN(C)c1ccc(/C=C/C(=O)c2ccccc2)cc1Br
GI50 [2]: 25.1 µM (inactive) | GI50 [3]: 16.3 µM (inactive) | GI50 [4]: 17.3 µM (inactive) | GI50 [7]: 15.1 µM (inactive) | GI50 [8]: 18.9 µM (inactive)

CCCCCC/C=C\CCCCCCCCC(=O)c1cccc(OC)c1OC
GI50 [1]: > 100 µM (inactive)

N#Cc1c(-c2ccc(Cl)cc2)cc(-c2ccc(Nc3ccnc4cc(Cl)ccc34)cc2)[nH]c1=O
GI50 [1]: 19.6 µM (inactive)

COC(=O)CN1C(=O)C2(C(=O)OC)OC1(c1ccc([N+](=O)[O-])cc1)C1C(=O)N(c3ccccc3)C(=O)C12 (centres undefined)
GI50 [1]: > 100 µM (inactive)

CC1CN1c1c(C(=O)/C=C/c2ccccc2)c(-c2ccccc2)nn(C)c1=O (centres undefined)
GI50 [2]: 19.1 µM (inactive) | GI50 [4]: 23 µM (inactive) | GI50 [5]: 26.2 µM (inactive) | GI50 [6]: 16.7 µM (inactive) | GI50 [7]: 15.3 µM (inactive) | GI50 [8]: 15.2 µM (inactive)

CCN(CC)CCCNc1ccc([N+](=O)[O-])c2nc3ccccc3c(N)c12
GI50 [1]: 1.4 µM (inactive)

O=C1c2ccc3c4ccc5c6c(ccc(c7ccc(c2c37)C(=O)N1CCN1CCCCC1)c64)C(=O)N(CCN1CCCCC1)C5=O
GI50 [1]: > 100 µM (inactive)

Cc1ccc(-c2nc3ccccc3c(=O)n2NCC2(O)OCC(O)C(O)C2O)cc1 (centres undefined)
GI50 [2]: > 100 µM (inactive) | GI50 [4]: > 100 µM (inactive) | GI50 [6]: > 100 µM (inactive) | GI50 [7]: > 100 µM (inactive)

CC(=O)OCC12C(OC(C)=O)C[C@@H](C)C3(CC(c4ccoc4)OC3=O)C1CCC(OC(C)=O)C21CO1 (some centres undefined)
GI50 [1]: > 100 µM (inactive)

O=C(N/N=C\c1ccc(Cl)cc1)Nc1ccc2ccccc2c1
GI50 [1]: 56.6 µM (inactive)

CCc1cccc(CC)c1NC(=O)C(=O)Cc1nc2ccccc2o1
GI50 [2]: > 100 µM (inactive) | GI50 [4]: > 100 µM (inactive) | GI50 [5]: > 100 µM (inactive) | GI50 [7]: > 100 µM (inactive) | GI50 [8]: > 100 µM (inactive)

CC(=O)Oc1ccccc1C(=O)O [ASPIRIN]
GI50 [1]: > 100 µM (inactive)

COc1cccc2c(Nc3ccc(S(=O)(=O)NC(C)=O)cc3)c3ccc([N+](=O)[O-])cc3nc12
GI50 [1]: 26.3 µM (inactive)

N=C(N)NCCCC(NC(=O)OCCCCn1ccc(N)nc1=O)C(=O)O (centres undefined)
GI50 [1]: > 100 µM (inactive)

CCN(CC)C1=Nc2ccccc2-n2c(C)cnc2C1
GI50 [1]: > 100 µM (inactive)

CC1C(c2ccccc2)OP(=O)(OC(C#N)c2ccccc2)N1C (centres undefined)
GI50 [1]: > 100 µM (inactive)

Nc1ccn(C=C=CCO)c(=O)n1
GI50 [1]: > 100 µM (inactive)

CCOC(=O)/C(=C\NC(C)(C)C)c1nc2ccccc2[nH]1
GI50 [1]: 27.9 µM (inactive)

COc1cccc(NC(=O)CC(=O)N2N=C(N(CCC#N)c3ccc(Cl)cc3)CC2c2ccccc2)c1 (centres undefined)
GI50 [2]: > 100 µM (inactive) | GI50 [4]: > 100 µM (inactive) | GI50 [5]: > 100 µM (inactive) | GI50 [6]: > 100 µM (inactive) | GI50 [7]: > 100 µM (inactive) | GI50 [8]: > 100 µM (inactive)

CC(=O)OC1COC(n2nc(/C=C/c3ccc(Cl)cc3)c(=O)n(/N=C/c3ccccc3)c2=S)C(OC(C)=O)C1OC(C)=O (centres undefined)
GI50 [1]: > 100 µM (inactive)

Oc1cc(Br)cc2cc(Br)cnc12
GI50 [1]: 4.58 µM (inactive)

COC(=O)C1=C(C)NC2(C)OC(C)(O)C(C(C)=O)C12C(C)=O (centres undefined)
GI50 [1]: 66.5 µM (inactive)

CC(=O)O[C@H]1[C@@H](OC2CCCC2(c2ccccc2)c2ccccc2)O[N+]([O-])=C[C@@]12COCc1cc3c(cc12)OCO3 (some centres undefined)
GI50 [1]: 23 µM (inactive)

COc1ccc2[nH]c3c(C)c4ccnc(NCCCN(C)CCCN)c4c(C)c3c2c1
GI50 [1]: 1.76 µM (inactive)

N#CC(NC12CC3CC(CC(C3)C1)C2)c1ccccc1 (centres undefined)
GI50 [1]: > 100 µM (inactive)

CCN1CCC(O)(c2ccc(Oc3ccc(F)cc3)cc2)C(C(=O)c2ccc(Oc3ccc(F)cc3)cc2)C1 (centres undefined)
GI50 [1]: 15.7 µM (inactive)

COC1=CC(C)C2C[C@H]3O[C@H](O)C[C@H]4C(C)C(=O)C(O)C([C@@]2(C)C1=O)[C@@]34C (some centres undefined)
GI50 [4]: > 100 µM (inactive) | GI50 [5]: > 100 µM (inactive) | GI50 [6]: > 100 µM (inactive) | GI50 [7]: > 100 µM (inactive) | GI50 [8]: > 100 µM (inactive)

CC(C)(C)OC(=O)NCCCCCCC(=O)Cc1ccccc1
GI50 [1]: > 100 µM (inactive)

CC(C)=CC(=O)O[C@@H]1CC(C)(C)CC2C3=CCC4[C@]56CC[C@](O)(OC5)C(C)(C)C6CC[C@@]4(C)C3(C)CC[C@]21C(=O)O (some centres undefined)
GI50 [1]: > 100 µM (inactive)

COC(=O)C(=O)C1(CCC(C)=O)c2ccccc2-c2ccccc21
GI50 [2]: > 100 µM (inactive) | GI50 [4]: 65.5 µM (inactive) | GI50 [5]: 71.6 µM (inactive) | GI50 [6]: 43.6 µM (inactive) | GI50 [7]: 47.1 µM (inactive) | GI50 [8]: 66.2 µM (inactive)

CC(=O)OCC(OC(C)=O)C(OC(C)=O)C(OC(C)=O)C(/C=N\Nc1nc2ccccc2c(=O)[nH]1)=N/Nc1nc2ccccc2c(=O)[nH]1 (centres undefined)
GI50 [1]: > 100 µM (inactive)

C=CCN1CCN([C@H](c2ccc(C(=O)N(CC)CC)cc2)c2cccc(OC)c2)CC1
GI50 [1]: > 25 µM (inactive)

O=C(c1ccccc1)N1CCC(Nc2nccs2)O1 (centres undefined)
GI50 [1]: > 10 µM (inactive)

COc1ccccc1NC(=O)O/N=C(/Cl)C(C)C
GI50 [1]: 3.48 µM (inactive)

CCc1ccc2c(c1)N(CC(C)CN(C)C)c1ccccc1S2 (centres undefined) [ETYMEMAZINE HYDROCHLORIDE]
GI50 [1]: 12.9 µM (inactive)

C[n+]1c2ccccc2c(CNc2ccc(S(=O)(=O)N=C(N)N)cc2)c2ccccc21
GI50 [2]: 13.6 µM (inactive) | GI50 [4]: 2.65 µM (inactive) | GI50 [6]: 2.94 µM (inactive) | GI50 [8]: 17.3 µM (inactive)

CCCN(CCCCN1C(=O)c2ccccc2C1=O)CC1COc2ccccc2O1 (centres undefined)
GI50 [1]: > 100 µM (inactive)

C=C(Cl)C(Cl)(CBr)CCC(Cl)C(C)(C)Cl (centres undefined)
GI50 [1]: 5.47 µM (inactive)

C/C(=N\NC(=S)NCc1ccccc1)c1nc2cccnc2[nH]1
GI50 [1]: 6.12 µM (inactive)

C[N+]12C=CC=C1C(N1CCCC1)c1scc(-c3ccccc3)c12 (centres undefined)
GI50 [1]: 4.25 µM (inactive)

Cc1ccc(O)c(Cc2nc3ccccc3nc2-c2cccc(Cl)c2)c1
GI50 [1]: > 100 µM (inactive)

COc1cc(/C=C(\C#N)C(=O)c2ccccc2)cc(OC)c1OC
GI50 [2]: > 100 µM (inactive) | GI50 [4]: > 100 µM (inactive) | GI50 [5]: > 100 µM (inactive) | GI50 [6]: > 100 µM (inactive) | GI50 [7]: > 100 µM (inactive) | GI50 [8]: > 100 µM (inactive)

CCOP(=O)(OCC)/C(F)=C/c1ccc(F)cc1
GI50 [1]: > 100 µM (inactive)
